In brackets after ≈: the same amount, converted by molar mass. Like-named read-outs stand apart in the source and are kept apart here.
Key:
[1] = system: M. tuberculosis H37Rv strain; assay: microbe, parasite or virus in culture; assay type: cell-based
M. tuberculosis H37Rv = assay: Checkerboard assay, two-drug combination with REMA readout; assay type: cell-based, Mycobacterium tuberculosis; settings: for MIC: Mycobacterium tuberculosis, read-out: MIC Alone, checkerboard, drug alone, three independent experiments
[2] = system: M. tuberculosis pNIP::KatG(WT); assay: microbe, parasite or virus in culture; assay type: cell-based; settings: Mycobacterium tuberculosis
[3] = system: M. tuberculosis pNIP::control; assay: microbe, parasite or virus in culture; assay type: cell-based; settings: Mycobacterium tuberculosis; pNIP::control (empty vector)
[4] = system: M. tuberculosis pan-susceptible clinical isolate CDCT-28; assay: microbe, parasite or virus in culture; assay type: cell-based; settings: Mycobacterium tuberculosis
[5] = system: M. tuberculosis H37Rv strain; set-up: method as in Abbadi, 2018; settings: ref Abbadi, 2018; cited from earlier work
S. typhimurium TA100 = assay: Salmonella/microsome mutagenicity test
Experimental: (§1) Salmonella typhimurium strains TA98, TA97a, TA100, TA1535, and TA102 were provided by MOLTOX® (Molecular Toxicology Inc. USA). Mutagenicity was assayed according to the pre-incubation procedure following the recommendation described in Mortelmans and Zieger (2000). […] Briefly, 100 μL of test bacterial cultures (1–2 x 10^9 cells/mL) were incubated at 37 °C with different concentrations of N9 (10–400 μg/plate) in the presence or absence of S9 mix, for 20 min, without shaking. […] Plates were incubated in the dark at 37 °C for 48 h before counting the revertant colonies. Assays were repeated twice and the plating for each concentration was conducted in triplicate. Data were evaluated by one-way analysis of variance (ANOVA), followed by Dunnett's post-test, using GraphPad Prism 5.0 (GraphPad, San Diego, CA, USA).

S. typhimurium TA1535 = assay: Salmonella/microsome mutagenicity test
Experimental: as §1

S. typhimurium TA102 = assay: Salmonella/microsome mutagenicity test; settings: TA102, +S9, positive control 5 μg/plate
Experimental: (§2) Salmonella typhimurium strains TA98, TA97a, TA100, TA1535, and TA102 were provided by MOLTOX® (Molecular Toxicology Inc. USA). Mutagenicity was assayed according to the pre-incubation procedure following the recommendation described in Mortelmans and Zieger (2000). […] Briefly, 100 μL of test bacterial cultures (1–2 x 10^9 cells/mL) were incubated at 37 °C with different concentrations of N9 (10–400 μg/plate) in the presence or absence of S9 mix, for 20 min, without shaking. […] 2-aminoanthracene (2-AA, 5 μg/plate) was used as positive control for all strains in the presence of metabolic activation (with S9 mix). […] Plates were incubated in the dark at 37 °C for 48 h before counting the revertant colonies. Assays were repeated twice and the plating for each concentration was conducted in triplicate. Data were evaluated by one-way analysis of variance (ANOVA), followed by Dunnett's post-test, using GraphPad Prism 5.0 (GraphPad, San Diego, CA, USA).

S. typhimurium TA98 = assay: Salmonella/microsome mutagenicity test; settings: TA98, +S9, positive control 5 μg/plate
Experimental: as §2

S. typhimurium TA97a = assay: Salmonella/microsome mutagenicity test; settings: +S9, positive control 5 μg/plate
Experimental: as §2

[6] = system: M. tuberculosis pan-susceptible clinical isolate CDCT-28; settings: cited from earlier work
[7] = Mycobacterium tuberculosis, H37RV, read-out: MIC
[8] = TA100, -S9, positive control 1 μg/plate
[9] = TA1535, -S9, positive control 1 μg/plate
[10] = TA100, +S9, positive control 5 μg/plate
[11] = TA1535, +S9, positive control 5 μg/plate

COc1ccccc1C(=O)/C=C/c1ccc2nccnc2c1 [N19]
MIC [1, 7]: > 25 µg/mL

O=C(/C=C/c1ccc2nccnc2c1)c1ccc2c(c1)OCO2 [N3]
MIC [1, 7]: > 25 µg/mL

O=C(/C=C/c1ccc2nccnc2c1)c1ccccc1O [N6]
MIC [1, 7]: > 5 µg/mL

NNC(=O)c1ccncc1 [INH, isoniazid, reference compound]
MIC [1, 7]: 0.39 µg/mL (≈ 2.84 µM) | MIC Alone (M. tuberculosis H37Rv; H37RV): 0.16 µg/mL | MIC (M. tuberculosis H37Rv; H37RV): 0.31 µg/mL | MIC [2]: < 0.2 µg/mL | MIC [3]: < 0.2 µg/mL | MIC [4]: 0.39 µg/mL (≈ 2.84 µM)

COc1c(N2C[C@@H]3CCCN[C@@H]3C2)c(F)cc2c(=O)c(C(=O)O)cn(C3CC3)c12 [MFX, moxifloxacin, reference compound]
MIC (M. tuberculosis H37Rv; H37RV): 0.15 µg/mL | Improvement of MIC of MFX in the presence of N9 (M. tuberculosis H37Rv; all three experiments): 4 fold | MIC [5]: <0.2 µg/mL

COc1ccc(C(=O)/C=C/c2ccc3nccnc3c2)c(OC)c1OC [N36]
MIC [1, 7]: 25 µg/mL (≈ 71.4 µM)

[N-]=[N+]=[N-].[Na+] [NaN3, sodium azide, reference compound]
MI: mutagenic index (S. typhimurium TA100; [8]): 6.03 | Number of revertants/plate (S. typhimurium TA100; [8]): 695.5±40.3 Rev/plate | MI: mutagenic index (S. typhimurium TA1535; [9]): 100.0 | Number of revertants/plate (S. typhimurium TA1535; [9]): 1133.0±179.6 Rev/plate

Nc1ccc2cc3ccccc3cc2c1 [2-AA, 2-aminoanthracene, reference compound]
MI: mutagenic index (S. typhimurium TA102): 3.62 | Number of revertants/plate (S. typhimurium TA102): 1354.0±21.1 Rev/plate | MI: mutagenic index (S. typhimurium TA98): 39.65 | Number of revertants/plate (S. typhimurium TA98): 1586.0±161.2 Rev/plate | MI: mutagenic index (S. typhimurium TA97a): 6.44 | Number of revertants/plate (S. typhimurium TA97a): 742.0±59.4 Rev/plate | MI: mutagenic index (S. typhimurium TA100; [10]): 11.03 | Number of revertants/plate (S. typhimurium TA100; [10]): 1279.0±50.2 Rev/plate | MI: mutagenic index (S. typhimurium TA1535; [11]): 6.96 | Number of revertants/plate (S. typhimurium TA1535; [11]): 58.0±12.7 Rev/plate

O=C(/C=C/c1ccc2nccnc2c1)c1ccc(Br)cc1 [N4]
MIC [1, 7]: > 25 µg/mL

COc1cc(OC)c(C(=O)/C=C/c2ccc3nccnc3c2)cc1OC [N17]
MIC [1, 7]: > 25 µg/mL

COc1cccc(C(=O)/C=C/c2ccc3nccnc3c2)c1 [N23]
MIC ([1]; H37Rv): 5 µg/mL (≈ 17.2 µM) | MIC [1, 7]: 3.13 to 12.5 µg/mL (≈ 10.8 to 43.1 µM) | MIC [4]: 2.5 µg/mL (≈ 8.61 µM)

N#Cc1cccc(C(=O)/C=C/c2ccc3nccnc3c2)c1 [N34]
MIC [1, 7]: > 25 µg/mL

COc1cc(C(=O)/C=C/c2ccc3nccnc3c2)cc(OC)c1O [N20]
MIC [1, 7]: > 25 µg/mL

N#Cc1ccc(C(=O)/C=C/c2ccc3nccnc3c2)cc1 [N33]
MIC [1, 7]: > 25 µg/mL

CO[C@H]1/C=C/O[C@@]2(C)Oc3c(C)c(O)c4c(O)c(c(/C=N/N5CCN(C)CC5)c(O)c4c3C2=O)NC(=O)/C(C)=C\C=C\[C@H](C)[C@H](O)[C@@H](C)[C@@H](O)[C@@H](C)[C@H](OC(C)=O)[C@@H]1C [RIF, Rifampicin]
MIC [5]: <0.2 µg/mL | MIC [6]: <0.2 µg/mL

O=C(/C=C/c1ccc2nccnc2c1)c1ccc([N+](=O)[O-])cc1 [N7]
MIC [1, 7]: > 25 µg/mL

COc1cc(C(=O)/C=C/c2ccc3nccnc3c2)cc(OC)c1OC [N15]
MIC ([1]; H37Rv): 6.25 µg/mL (≈ 17.8 µM) | MIC [1, 7]: 3.13 to 12.5 µg/mL (≈ 8.93 to 35.7 µM) | MIC [4]: 3.13 µg/mL (≈ 8.93 µM)

Source: PMC6095594, “Pre-clinical evaluation of quinoxaline-derived chalcones in tuberculosis” (PLoS ONE, 2018)
